The NIST ThermoML archive (doi:10.1016/j.jct.2005.03.020)
Numbers after ± are expanded uncertainties.

Legend:
[1] = excess molar enthalpy (molar enthalpy of mixing); xn = mol fraction of the nth substance listed; conditions: 298.15 K, 101.33 kPa, Liquid
[2] = xn = mol fraction of the nth substance listed; conditions: 298.15 K, 101.33 kPa, Liquid

ClCCCCCCl [1,5-dichloropentane] + CCCC(=O)OCC
Conditions	excess molar enthalpy [kcal/mol]	mass density [kg/m3]
[1], x2 = 0.0571	-0.00196 ± 0.000406	–
[1], x2 = 0.1213	-0.00643 ± 0.000478	–
[1], x2 = 0.1884	-0.012 ± 0.00055	–
[1], x2 = 0.2532	-0.0176 ± 0.000645	–
[1], x2 = 0.3155	-0.0235 ± 0.000741	–
[1], x2 = 0.3746	-0.0297 ± 0.000837	–
[1], x2 = 0.4289	-0.0361 ± 0.000932	–
[1], x2 = 0.478	-0.0416 ± 0.001	–
[1], x2 = 0.5235	-0.0442 ± 0.00105	–
[1], x2 = 0.5576	-0.0456 ± 0.00108	–
[1], x2 = 0.5639	-0.0459 ± 0.00108	–
[1], x2 = 0.6129	-0.0461 ± 0.00108	–
[1], x2 = 0.6726	-0.0449 ± 0.00108	–
[1], x2 = 0.736	-0.0402 ± 0.001	–
[1], x2 = 0.8047	-0.0329 ± 0.000884	–
[1], x2 = 0.8728	-0.0236 ± 0.000741	–
[1], x2 = 0.9406	-0.0114 ± 0.00055	–
[2], x2 = 0.0569	–	1082.35 ± 0.69
[2], x2 = 0.1136	–	1069.48 ± 0.7
[2], x2 = 0.171	–	1056.53 ± 0.7
[2], x2 = 0.2286	–	1043.61 ± 0.71
[2], x2 = 0.2917	–	1029.5 ± 0.72
[2], x2 = 0.3489	–	1016.71 ± 0.73
[2], x2 = 0.4084	–	1003.45 ± 0.74
[2], x2 = 0.4653	–	990.76 ± 0.77
[2], x2 = 0.5243	–	977.72 ± 0.79
[2], x2 = 0.5825	–	964.82 ± 0.82
[2], x2 = 0.6411	–	951.9 ± 0.85
[2], x2 = 0.7595	–	925.89 ± 0.9
[2], x2 = 0.8188	–	912.92 ± 0.93
[2], x2 = 0.8799	–	899.6 ± 0.96
[2], x2 = 0.9403	–	886.46 ± 0.99

ClCCCCCCl [1,5-dichloropentane] + CCCCC(=O)OCC
Conditions	excess molar enthalpy [kcal/mol]	mass density [kg/m3]
[1], x2 = 0.0481	-0.00244 ± 0.000406	–
[1], x2 = 0.1066	-0.00762 ± 0.000502	–
[1], x2 = 0.1663	-0.0128 ± 0.000574	–
[1], x2 = 0.228	-0.0206 ± 0.000693	–
[1], x2 = 0.2876	-0.0279 ± 0.000813	–
[1], x2 = 0.3438	-0.0357 ± 0.000932	–
[1], x2 = 0.3973	-0.0434 ± 0.00105	–
[1], x2 = 0.416	-0.0465 ± 0.0011	–
[1], x2 = 0.4433	-0.0493 ± 0.00112	–
[1], x2 = 0.4786	-0.0512 ± 0.00117	–
[1], x2 = 0.5288	-0.0522 ± 0.00117	–
[1], x2 = 0.5848	-0.0517 ± 0.00117	–
[1], x2 = 0.6478	-0.05 ± 0.00115	–
[1], x2 = 0.7165	-0.0433 ± 0.00105	–
[1], x2 = 0.7867	-0.0365 ± 0.000932	–
[1], x2 = 0.8597	-0.0264 ± 0.000789	–
[1], x2 = 0.9325	-0.0137 ± 0.000598	–
[2], x2 = 0.1036	–	1068.61 ± 0.64
[2], x2 = 0.1561	–	1055.46 ± 0.62
[2], x2 = 0.2082	–	1042.59 ± 0.6
[2], x2 = 0.2623	–	1029.48 ± 0.58
[2], x2 = 0.3179	–	1016.24 ± 0.56
[2], x2 = 0.3785	–	1002.01 ± 0.54
[2], x2 = 0.4369	–	988.54 ± 0.54
[2], x2 = 0.4943	–	975.55 ± 0.55
[2], x2 = 0.5534	–	962.34 ± 0.56
[2], x2 = 0.6141	–	949.06 ± 0.57
[2], x2 = 0.6755	–	935.8 ± 0.58
[2], x2 = 0.7367	–	922.8 ± 0.59
[2], x2 = 0.8008	–	909.43 ± 0.61
[2], x2 = 0.8658	–	896.13 ± 0.62
[2], x2 = 0.9318	–	882.79 ± 0.64

ClCCCCCCCl [1,6-dichlorohexane] + CCCC(=O)OCC
Conditions	excess molar enthalpy [kcal/mol]	mass density [kg/m3]
[1], x2 = 0.051	-0.000789 ± 0.000382	–
[1], x2 = 0.1085	-0.0022 ± 0.000406	–
[1], x2 = 0.1746	-0.00564 ± 0.000454	–
[1], x2 = 0.2423	-0.0101 ± 0.000526	–
[1], x2 = 0.3076	-0.0158 ± 0.000621	–
[1], x2 = 0.3688	-0.0202 ± 0.000693	–
[1], x2 = 0.4325	-0.0254 ± 0.000765	–
[1], x2 = 0.4782	-0.0283 ± 0.000813	–
[1], x2 = 0.525	-0.0321 ± 0.00086	–
[1], x2 = 0.5779	-0.0341 ± 0.000908	–
[1], x2 = 0.6383	-0.0346 ± 0.000908	–
[1], x2 = 0.7034	-0.0313 ± 0.00086	–
[1], x2 = 0.7744	-0.0254 ± 0.000765	–
[1], x2 = 0.8524	-0.0179 ± 0.000645	–
[1], x2 = 0.9323	-0.00949 ± 0.000526	–
[2], x2 = 0.0651	–	1052.45 ± 1.1
[2], x2 = 0.1277	–	1041.56 ± 1.1
[2], x2 = 0.1889	–	1030.69 ± 1.1
[2], x2 = 0.2509	–	1019.59 ± 1.1
[2], x2 = 0.3119	–	1008.53 ± 1.1
[2], x2 = 0.3711	–	997.66 ± 1
[2], x2 = 0.4384	–	985.13 ± 1
[2], x2 = 0.4971	–	974.07 ± 1
[2], x2 = 0.5548	–	963.05 ± 1
[2], x2 = 0.6131	–	951.77 ± 1
[2], x2 = 0.67	–	940.63 ± 1
[2], x2 = 0.7263	–	929.48 ± 1
[2], x2 = 0.7824	–	918.28 ± 1
[2], x2 = 0.8369	–	907.25 ± 1
[2], x2 = 0.8922	–	895.96 ± 1
[2], x2 = 0.9457	–	884.85 ± 1

ClCCCCCCCl [1,6-dichlorohexane] + CCCCC(=O)OCC
Conditions	excess molar enthalpy [kcal/mol]	mass density [kg/m3]
[1], x2 = 0.0607	-0.00433 ± 0.00043	–
[1], x2 = 0.127	-0.00896 ± 0.000502	–
[1], x2 = 0.1968	-0.0146 ± 0.000598	–
[1], x2 = 0.264	-0.0205 ± 0.000693	–
[1], x2 = 0.3289	-0.0265 ± 0.000789	–
[1], x2 = 0.389	-0.0331 ± 0.000884	–
[1], x2 = 0.4445	-0.0397 ± 0.00098	–
[1], x2 = 0.4953	-0.0439 ± 0.00105	–
[1], x2 = 0.5409	-0.0448 ± 0.00108	–
[1], x2 = 0.5672	-0.045 ± 0.00108	–
[1], x2 = 0.5813	-0.0449 ± 0.00108	–
[1], x2 = 0.6117	-0.0433 ± 0.00105	–
[1], x2 = 0.6723	-0.0395 ± 0.00098	–
[1], x2 = 0.7364	-0.0342 ± 0.000908	–
[1], x2 = 0.8027	-0.0278 ± 0.000813	–
[1], x2 = 0.8717	-0.0198 ± 0.000669	–
[1], x2 = 0.9373	-0.0107 ± 0.00055	–
[2], x2 = 0.0538	–	1053.1 ± 1.1
[2], x2 = 0.1126	–	1041.51 ± 1
[2], x2 = 0.1693	–	1030.36 ± 1
[2], x2 = 0.2307	–	1018.34 ± 0.95
[2], x2 = 0.287	–	1007.32 ± 0.9
[2], x2 = 0.3464	–	995.69 ± 0.86
[2], x2 = 0.5231	–	961.26 ± 0.77
[2], x2 = 0.5825	–	949.74 ± 0.75
[2], x2 = 0.701	–	926.81 ± 0.71
[2], x2 = 0.7586	–	915.69 ± 0.69
[2], x2 = 0.8777	–	892.8 ± 0.67
[2], x2 = 0.94	–	880.88 ± 0.66

ClCCCCCCCl [1,6-dichlorohexane] + CCOC(C)=O
Conditions	excess molar enthalpy [kcal/mol]	mass density [kg/m3]
[1], x2 = 0.0931	0.00774 ± 0.00098	–
[1], x2 = 0.1859	0.0127 ± 0.00112	–
[1], x2 = 0.2737	0.0174 ± 0.00129	–
[1], x2 = 0.3572	0.0197 ± 0.00136	–
[1], x2 = 0.4323	0.0181 ± 0.00131	–
[1], x2 = 0.4967	0.0149 ± 0.0012	–
[1], x2 = 0.5544	0.0101 ± 0.00105	–
[1], x2 = 0.6025	0.00755 ± 0.00098	–
[1], x2 = 0.6355	0.0054 ± 0.000908	–
[1], x2 = 0.7013	0.00318 ± 0.000837	–
[1], x2 = 0.769	0.00105 ± 0.000765	–
[1], x2 = 0.8355	-0.00227 ± 0.000813	–
[1], x2 = 0.9006	-0.00363 ± 0.00086	–
[1], x2 = 0.9593	-0.00163 ± 0.000789	–
[2], x2 = 0.0827	–	1053.91 ± 1.1
[2], x2 = 0.164	–	1043.7 ± 0.98
[2], x2 = 0.2386	–	1033.83 ± 0.9
[2], x2 = 0.3112	–	1023.72 ± 0.83
[2], x2 = 0.3783	–	1013.89 ± 0.77
[2], x2 = 0.4437	–	1003.86 ± 0.71
[2], x2 = 0.5071	–	993.65 ± 0.66
[2], x2 = 0.5654	–	983.86 ± 0.62
[2], x2 = 0.6221	–	973.92 ± 0.58
[2], x2 = 0.6754	–	964.14 ± 0.55
[2], x2 = 0.7291	–	953.86 ± 0.53
[2], x2 = 0.7774	–	944.24 ± 0.51
[2], x2 = 0.824	–	934.61 ± 0.5
[2], x2 = 0.8726	–	924.1 ± 0.49
[2], x2 = 0.9134	–	914.94 ± 0.48
[2], x2 = 0.9552	–	905.22 ± 0.48

CCCC(=O)OCC [ethyl butanoate] + ClCCCl
Conditions	excess molar enthalpy [kcal/mol]	mass density [kg/m3]
[1], x1 = 0.0372	-0.00574 ± 0.000478	–
[1], x1 = 0.0865	-0.016 ± 0.000621	–
[1], x1 = 0.1386	-0.0291 ± 0.000837	–
[1], x1 = 0.1921	-0.0436 ± 0.00105	–
[1], x1 = 0.2431	-0.0589 ± 0.00129	–
[1], x1 = 0.2939	-0.0737 ± 0.00151	–
[1], x1 = 0.3419	-0.0863 ± 0.00172	–
[1], x1 = 0.388	-0.0979 ± 0.00189	–
[1], x1 = 0.4274	-0.105 ± 0.00201	–
[1], x1 = 0.4838	-0.109 ± 0.00206	–
[1], x1 = 0.5489	-0.11 ± 0.00208	–
[1], x1 = 0.5825	-0.108 ± 0.00203	–
[1], x1 = 0.6236	-0.104 ± 0.00198	–
[1], x1 = 0.7068	-0.0906 ± 0.00177	–
[1], x1 = 0.7989	-0.0682 ± 0.00143	–
[1], x1 = 0.8971	-0.0405 ± 0.001	–
[1], x1 = 0.9325	-0.0292 ± 0.000837	–
[2], x1 = 0.0378	–	1221.95 ± 0.79
[2], x1 = 0.075	–	1199.86 ± 0.75
[2], x1 = 0.1149	–	1177.55 ± 0.73
[2], x1 = 0.1568	–	1155.49 ± 0.7
[2], x1 = 0.198	–	1134.78 ± 0.68
[2], x1 = 0.2425	–	1113.63 ± 0.67
[2], x1 = 0.2957	–	1089.91 ± 0.66
[2], x1 = 0.3476	–	1068.19 ± 0.65
[2], x1 = 0.4019	–	1046.72 ± 0.66
[2], x1 = 0.46	–	1025.2 ± 0.67
[2], x1 = 0.5234	–	1003.08 ± 0.68
[2], x1 = 0.5887	–	981.85 ± 0.73
[2], x1 = 0.6583	–	960.62 ± 0.78
[2], x1 = 0.7338	–	939.07 ± 0.83
[2], x1 = 0.8138	–	917.85 ± 0.89
[2], x1 = 0.9027	–	895.87 ± 0.95
